Measurements reported in PMC12303054, “First-in-class inhibitors of Nsp15 endoribonuclease of SARS-CoV-2: Modeling, synthesis, and enzymatic assay of thiazolidinedione and rhodanine analogs” (The Journal of Biological Chemistry, 2025).

How the values were obtained:
Assay type in all cases: biochemical
Conditions in all cases: 100 µM
[1] = biological target: His250Ala SARS-CoV-2 Nsp15 (Severe acute respiratory syndrome coronavirus 2, UniProt P0DTD1, H6701A)
[2] = biological target: Ser294Ala SARS-CoV-2 Nsp15 (Severe acute respiratory syndrome coronavirus 2, UniProt P0DTD1, S6745A)
[3] = biological target: Tyr343Ala SARS-CoV-2 Nsp15 (Severe acute respiratory syndrome coronavirus 2, UniProt P0DTD1, Y6794A)
[4] = biological target: Lys345Ala SARS-CoV-2 Nsp15 (Severe acute respiratory syndrome coronavirus 2, UniProt P0DTD1, K6796A)

Measured: residual activity retained

O=C1NC(=S)SC1=CC=Cc1ccnc2ccccc12 [KCO237, 5-(3-quinolin-4-yl-allylidene)-2-thioxo-thiazolidine-4-one]
approximately 50%: all assays above
